Measured values as given in US9657360B2, “Detection of viral infection” (priority 2011, dated 2017).
Residues, ends and D or L forms follow the SMILES beside them. *: point of attachment. Cbz = O=C(OCc1ccccc1)*

What was measured:
Hendra virus = format: cell-based

Cc1ccc(S(=O)(=O)/C=C/C#N)cc1 [Bay11-7082]
Hendra virus replication (HeV titres) (Hendra virus): reduced (not significantly)
HeLa cell viability (HeLa cells): not adversely impacting HeLa cell viability

CC(C)C[C@@H](C=O)NC(=O)[C@H](CC(C)C)NC(=O)[C@H](CC(C)C)NC(=O)OCc1ccccc1 [MG-132] (Cbz-Leu-Leu-Leu-aldehyde)
Hendra virus replication (HeV titres) (Hendra virus): significantly reduced
HeLa cell viability (HeLa cells): not adversely impacting HeLa cell viability
